Data on 20 compounds can be found in US8962630B2, “Pyrrolopyrimidine compounds and their uses” (Novartis AG, priority 2008, dated 2015).

Holding throughout (type): biochemical
In one assay the target is CDK4/cyclin D1 (Homo sapiens (Human), UniProt P11802). Kind of assay: CDK4/Cyclin D1 enzymatic activity assay (Lance TR-FRET). As to the method:
A 384-well microtiter Lance TR-FRET (time-resolved-fluorescence energy transfer) endpoint assay was used for CDK4/cyclin D1 kinase activity measurements. The same assay was used for IC50 determination of small molecule inhibitors. In general, the kinase reactions were carried out in 30 μL volumes in the reaction solution containing the following: 2 uL compound (in […]), 18 uL CDK4/cyclin D1 in Assay Buffer (50 mM HEPES, pH 7.5, 5 mM MgCl2, 2 mM MnCl2, 1 mM DTT, 0.05% BSA, 0.02% Tween-20), 10 uL of the mixture of pRb152 and ATP. The final reaction mixture contains compound (inhibitor) with the concentration varying from 0.005-10 μM, 2% DMSO, 0.3 nM CDK4/cyclin D1, 175 nM pRb152, and 3 μM ATP (Amersham Pharmacia, Cat. No. 27-2056-01). All reactions were run at room temperature in 384-well white flat-bottom OptiPlates (Perkin Elmer, Cat. No. 6007290) for 60 min then were quenched by the addition of 10 μL of 120 mM EDTA. The signals were captured by the addition of 40 μL of the Detection Solution containing the following: Detection Buffer (50 mM HEPES, pH 7.5, 30 mM EDTA, 0.1% Triton x-100, 0.05% BSA), 70 ng/mL anti-phospho-pRb(S780) (Cell Signaling Technology, Cat. No. 9307S), 1 nM Lance Eu-W1024-Rabbit anti-IgG (Perkin Elmer, Cat. No. AD0082), and 20 nM SureLight™ Allophycocyanin-Streptavidin (Perkin Elmer, Cat. No. CR130-100). The resulted solutions were incubated at room temperature for 2 hours before read on the Evision Multilabel Reader (Perkin Elmer, Envision 2102-0010).
CDk4/cyclin D1 recombinant protein used in the enzymatic activity assay was prepared by coexpressing pDEST10-CDK4 (N-terminal His6) and pFastBacDual-GST-hCyclinDl viruses in Sf21 cells.

Another assay concerns the target CDK1/cyclin B (Homo sapiens (Human), UniProt P06493). In words: CDK1/Cyclin B enzymatic activity assay (IMAP-FP). From the text:
A 384-well microtiter IMAP-FPT™ (Molecular Devices Trade Mark Technology) endpoint assay was used for CDK1/cyclin B kinase activity measurements. The same assay was used for IC50 determination of small molecule inhibitors.

Another assay deals with CDK2/cyclin A (Homo sapiens (Human), UniProt P24941). In words: CDK2/Cyclin A enzymatic activity assay (IMAP-FP).
[1] abbreviates: Table 2, 3 μM ATP, read-out: CDK4.
Setting [2] is: Table 2, 20 μM ATP, read-out: CDK1.

Where two headings read alike, the source gives them in different places.

Sequence of CDK1/cyclin B (P06493 whole entry, species assumed): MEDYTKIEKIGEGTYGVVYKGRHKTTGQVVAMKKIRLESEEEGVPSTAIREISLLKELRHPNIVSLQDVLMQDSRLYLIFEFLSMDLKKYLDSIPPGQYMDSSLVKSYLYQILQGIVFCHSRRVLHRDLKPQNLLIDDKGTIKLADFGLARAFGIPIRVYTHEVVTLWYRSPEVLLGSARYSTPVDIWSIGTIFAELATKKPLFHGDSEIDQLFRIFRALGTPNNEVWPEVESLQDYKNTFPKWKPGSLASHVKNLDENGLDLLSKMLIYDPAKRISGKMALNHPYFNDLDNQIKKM
Sequence of CDK1/cyclin B (P14635 whole entry partner, species assumed): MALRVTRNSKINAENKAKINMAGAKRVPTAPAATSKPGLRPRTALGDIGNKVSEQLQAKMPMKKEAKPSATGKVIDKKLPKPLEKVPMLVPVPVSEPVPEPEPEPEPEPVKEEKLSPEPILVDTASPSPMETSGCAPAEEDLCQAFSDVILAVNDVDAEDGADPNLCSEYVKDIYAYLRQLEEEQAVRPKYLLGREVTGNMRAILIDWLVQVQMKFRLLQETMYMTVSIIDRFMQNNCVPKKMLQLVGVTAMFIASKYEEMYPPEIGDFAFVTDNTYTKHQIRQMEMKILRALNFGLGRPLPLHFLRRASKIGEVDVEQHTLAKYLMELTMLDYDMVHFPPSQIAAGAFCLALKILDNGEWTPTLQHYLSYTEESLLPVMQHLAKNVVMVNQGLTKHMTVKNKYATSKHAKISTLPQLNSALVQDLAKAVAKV
Sequence of CDK4/cyclin D1 (P11802 whole entry): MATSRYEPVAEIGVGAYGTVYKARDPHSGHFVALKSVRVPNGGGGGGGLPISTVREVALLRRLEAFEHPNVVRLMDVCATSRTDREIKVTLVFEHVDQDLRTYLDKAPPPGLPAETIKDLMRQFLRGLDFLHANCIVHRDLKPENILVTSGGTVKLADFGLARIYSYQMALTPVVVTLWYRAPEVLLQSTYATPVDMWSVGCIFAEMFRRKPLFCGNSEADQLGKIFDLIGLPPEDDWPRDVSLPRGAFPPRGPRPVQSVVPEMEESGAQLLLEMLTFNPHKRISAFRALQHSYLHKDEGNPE
Sequence of CDK4/cyclin D1 (P24385 whole entry partner): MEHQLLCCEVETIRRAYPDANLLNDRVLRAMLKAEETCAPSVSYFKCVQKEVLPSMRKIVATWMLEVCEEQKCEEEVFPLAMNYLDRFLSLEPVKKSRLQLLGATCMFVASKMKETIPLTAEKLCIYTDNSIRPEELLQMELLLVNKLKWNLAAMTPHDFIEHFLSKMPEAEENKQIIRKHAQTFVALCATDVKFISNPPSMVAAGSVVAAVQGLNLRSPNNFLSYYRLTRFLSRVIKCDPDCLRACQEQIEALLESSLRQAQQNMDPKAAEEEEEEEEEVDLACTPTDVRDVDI

For `COCCN1CCN(c2ccc(Nc3ncc4cc(C(=O)N(C)C)n(C5CCCC5)c4n3)nc2)CC1` [Example 14, 7-Cyclopentyl-2-{5-[4-(2-methoxy-ethyl)-piperazin-1-yl]-pyridin-2-ylamino}-7H-pyrrolo[2,3-d]pyrimidine-6-carboxylic acid dimethylamide], the IC50 was 0.01 to 0.1 µM at CDK4/cyclin D1 (setting [1]); > 15 µM on CDK1/cyclin B (setting [2]); > 15 µM at CDK2/cyclin A (Table 2, read-out: CDK2).
With `O=C(c1cc2cnc(Nc3ccc(N4CCNCC4)cc3)nc2n1C1CCCC1)N1CCC1` [Example 201, reference compound], the IC50 at CDK4/cyclin D1 (Table 4, read-out: IC50 (μM) CDK4) was 0.11 µM; at CDK1/cyclin B (Table 4, read-out: IC50 (μM) CDK1), 7.5 µM; at CDK2/cyclin A (Table 4, read-out: IC50 (μM) CDK2), 10.3 µM.
In the case of `CN(C)C(=O)c1cc2cnc(Nc3ccc(N4CC[C@H](O)C4)cn3)nc2n1C1CCCC1` [Example 39, 7-Cyclopentyl-2-[5-((S)-3-hydroxy-pyrrolidin-1-yl)-pyridin-2-ylamino]-7H-pyrrolo[2,3-d]pyrimidine-6-carboxylic acid dimethylamide], the IC50 was 0.01 to 0.1 µM on CDK4/cyclin D1 (setting [1]); > 15 µM at CDK1/cyclin B (setting [2]); > 15 µM at CDK2/cyclin A (Table 2, read-out: CDK2).
With `CN(C)C(=O)c1cc2cnc(Nc3ccc(C(=O)N4CCC(N(C)C)CC4)cn3)nc2n1C1CCCC1` [Example 50, 7-Cyclopentyl-2-[5-(4-dimethylamino-piperidine-1-carbonyl)-pyridin-2-ylamino]-7H-pyrrolo[2,3-d]pyrimidine-6-carboxylic acid dimethylamide], the IC50 on CDK4/cyclin D1 (setting [1]) was 0.01 to 0.1 µM; at CDK1/cyclin B (setting [2]) it was > 15 µM; on CDK2/cyclin A (Table 2, read-out: CDK2), > 15 µM.
Consider `CN(C)C(=O)c1cc2cnc(Nc3ccc(N4CCN(C5CCCC5)CC4)cn3)nc2n1C1CCCC1` [Example 79, 7-Cyclopentyl-2-[5-(4-cyclopentyl-piperazin-1-yl)-pyridin-2-ylamino]-7H-pyrrolo[2,3-d]pyrimidine-6-carboxylic acid dimethylamide], for which the IC50 is 0.01 to 0.1 µM on CDK4/cyclin D1 (setting [1]); > 15 µM on CDK1/cyclin B (setting [2]); > 15 µM at CDK2/cyclin A (Table 2, read-out: CDK2).
With `CN(C)C(=O)c1cc2cnc(Nc3ccc(N4CCNCC4)nn3)nc2n1C1CCCC1` [Example 67, 7-Cyclopentyl-2-(6-piperazin-1-yl-pyridazin-3-ylamino)-7H-pyrrolo[2,3-d]pyrimidine-6-carboxylic acid dimethylamide], the IC50 on CDK4/cyclin D1 (setting [1]) was 0.01 to 0.1 µM; at CDK1/cyclin B (setting [2]), > 15 µM; at CDK2/cyclin A (Table 2, read-out: CDK2), > 15 µM.
On to `CN(C)C(=O)c1cc2cnc(Nc3ccc(N4CCN(CC#N)CC4)cn3)nc2n1C1CCCC1` [Example 84, 2-[5-(4-Cyanomethyl-piperazin-1-yl)-pyridin-2-ylamino]-7-cyclopentyl-7H-pyrrolo[2,3-d]pyrimidine-6-carboxylic acid dimethylamide], for which the IC50 at CDK4/cyclin D1 (setting [1]) is 0.01 to 0.1 µM; at CDK1/cyclin B (setting [2]), > 15 µM; on CDK2/cyclin A (Table 2, read-out: CDK2), > 15 µM.
Turning to `CN(C)C(=O)c1cc2cnc(Nc3ccc(N4CCN(CCF)CC4)cn3)nc2n1C1CCCC1` [Example 86, 7-Cyclopentyl-2-{5-[4-(2-fluoro-ethyl)-piperazin-1-yl]-pyridin-2-ylamino}-7H-pyrrolo[2,3-d]pyrimidine-6-carboxylic acid dimethylamide], the IC50 was 0.01 to 0.1 µM at CDK4/cyclin D1 (setting [1]); > 15 µM on CDK1/cyclin B (setting [2]); > 15 µM at CDK2/cyclin A (Table 2, read-out: CDK2).
For `CN(C)C(=O)c1cc2cnc(Nc3ccc(C(=O)N4CCN(CCO)CC4)cn3)nc2n1C1CCCC1` [Example 96, 7-Cyclopentyl-2-{5-[4-(2-hydroxy-ethyl)-piperazine-1-carbonyl]-pyridin-2-ylamino}-7H-pyrrolo[2,3-d]pyrimidine-6-carboxylic acid dimethylamide], the IC50 at CDK4/cyclin D1 (setting [1]) is 0.01 to 0.1 µM; at CDK1/cyclin B (setting [2]) it was > 15 µM; at CDK2/cyclin A (Table 2, read-out: CDK2) it was > 15 µM.
Regarding `CN(C)C(=O)c1cc2cnc(Nc3ccc(N4CCN(C[C@H](O)CO)CC4)cn3)nc2n1C1CCCC1` [Example 29, 7-Cyclopentyl-2-{5-[4-((S)-2,3-dihydroxy-propyl)-piperazin-1-yl]-pyridin-2-ylamino}-7H-pyrrolo[2,3-d]pyrimidine-6-carboxylic acid dimethylamide], the IC50 is 0.01 to 0.1 µM at CDK4/cyclin D1 (setting [1]); 15 µM at CDK1/cyclin B (setting [2]); > 15 µM at CDK2/cyclin A (Table 2, read-out: CDK2).
Regarding `CN(C)C(=O)c1cc2cnc(Nc3ccc(N4CCN(CCCO)CC4)cn3)nc2n1C1CCCC1` [Example 21, 7-Cyclopentyl-2-{5-[4-(3-hydroxy-propyl)-piperazin-1-yl]-pyridin-2-ylamino}-7H-pyrrolo[2,3-d]pyrimidine-6-carboxylic acid dimethylamide], the IC50 at CDK4/cyclin D1 (setting [1]) is 0.001 to 0.01 µM; on CDK1/cyclin B (setting [2]) it was > 15 µM; at CDK2/cyclin A (Table 2, read-out: CDK2), > 15 µM.
Consider `CN(C)C(=O)c1cc2cnc(Nc3ccc(N4CCN(C(=O)CN)CC4)cn3)nc2n1C1CCCC1` [Example 12, 2-{5-[4-(2-Amino-acetyl)-piperazin-1-yl]-pyridin-2-ylamino}-7-cyclopentyl-7H-pyrrolo[2,3-d]pyrimidine-6-carboxylic acid dimethylamide], for which the IC50 at CDK4/cyclin D1 (setting [1]) was 0.01 to 0.1 µM; on CDK1/cyclin B (setting [2]) it was > 15 µM; at CDK2/cyclin A (Table 2, read-out: CDK2), > 15 µM.
As to `CC(C)CCCN1CCN(c2ccc(Nc3ncc4cc(C(=O)N(C)C)n(C5CCCC5)c4n3)nc2)CC1` [Example 68, 7-Cyclopentyl-2-{5-[4-(4-methyl-pentyl)-piperazin-1-yl]-pyridin-2-ylamino}-7H-pyrrolo[2,3-d]pyrimidine-6-carboxylic acid dimethylamide], the IC50 on CDK4/cyclin D1 (setting [1]) is 0.001 to 0.01 µM; on CDK1/cyclin B (setting [2]) it was > 15 µM; on CDK2/cyclin A (Table 2, read-out: CDK2) it was > 15 µM.
Take `CNC(=O)c1cc2cnc(Nc3ccc(N4CCNCC4)cn3)nc2n1C1CCCC1` [Example 58, 7-Cyclopentyl-2-(5-piperazin-1-yl-pyridin-2-ylamino)-7H-pyrrolo[2,3-d]pyrimidine-6-carboxylic acid methylamide]: the IC50 was 0.01 to 0.1 µM on CDK4/cyclin D1 (setting [1]); > 15 µM at CDK1/cyclin B (setting [2]); > 15 µM at CDK2/cyclin A (Table 2, read-out: CDK2).
Consider `CN(C)C(=O)c1cc2cnc(Nc3ccc(N(C)CCN)cn3)nc2n1C1CCCC1` [Example 59, 2-{5-[(2-Amino-ethyl)-methyl-amino]-pyridin-2-ylamino}-7-cyclopentyl-7H-pyrrolo[2,3-d]pyrimidine-6-carboxylic acid dimethylamide], for which the IC50 on CDK4/cyclin D1 (setting [1]) was 0.01 to 0.1 µM; on CDK1/cyclin B (setting [2]) it was > 15 µM; on CDK2/cyclin A (Table 2, read-out: CDK2) it was > 15 µM.
For the compound `CN(C)C(=O)c1cc2cnc(Nc3ccc(N4CCN(C[C@@H](O)CO)CC4)cn3)nc2n1C1CCCC1` [Example 46, 7-Cyclopentyl-2-{5-[4-((R)-2,3-dihydroxy-propyl)-piperazin-1-yl]-pyridin-2-ylamino}-7H-pyrrolo[2,3-d]pyrimidine-6-carboxylic acid dimethylamide], the IC50 at CDK4/cyclin D1 (setting [1]) was 0.01 to 0.1 µM; on CDK1/cyclin B (setting [2]), > 15 µM; on CDK2/cyclin A (Table 2, read-out: CDK2) it was > 15 µM.
In the case of `CN(C)C(=O)c1cc2cnc(Nc3ccc(CN4CCN(CCO)CC4)cn3)nc2n1C1CCCC1` [Example 85, 7-Cyclopentyl-2-{5-[4-(2-hydroxy-ethyl)-piperazin-1-ylmethyl]-pyridin-2-ylamino}-7H-pyrrolo[2,3-d]pyrimidine-6-carboxylic acid dimethylamide], the IC50 on CDK4/cyclin D1 (setting [1]) is 0.01 to 0.1 µM; at CDK1/cyclin B (setting [2]) it was > 15 µM; at CDK2/cyclin A (Table 2, read-out: CDK2), > 15 µM.
Take `C[C@@H]1CN(c2ccc(Nc3ncc4cc(C(=O)N(C)C)n(C5CCCC5)c4n3)nc2)CCN1C(=O)OC(C)(C)C` [Example 30, (R)-4-[6-(7-Cyclopentyl-6-dimethylcarbamoyl-7H-pyrrolo[2,3-d]pyrimidin-2-ylamino)-pyridin-3-yl]-2-methyl-piperazine-1-carboxylic acid tert-butyl ester]: the IC50 on CDK4/cyclin D1 (setting [1]) is 0.1 to 1 µM; at CDK1/cyclin B (setting [2]), > 15 µM; on CDK2/cyclin A (Table 2, read-out: CDK2), > 15 µM.
`c1ncc(-c2cc3cnc(Nc4ccc(CN5CCNCC5)cn4)nc3n2C2CCCC2)o1` [Example 18, (7-Cyclopentyl-6-oxazol-5-yl-7H-pyrrolo[2,3-d]pyrimidin-2-yl)-(5-piperazin-1-ylmethyl-pyridin-2-yl)-amine]: the IC50 at CDK4/cyclin D1 (setting [1]) is 0.001 to 0.01 µM; on CDK1/cyclin B (setting [2]), 1.1 µM; at CDK2/cyclin A (Table 2, read-out: CDK2), 2.8 µM.
For the compound `CN(C)C(=O)c1cc2cnc(Nc3ccc(N(C)CCO)cn3)nc2n1C1CCCC1` [Example 83, 7-Cyclopentyl-2-{5-[(2-hydroxy-ethyl)-methyl-amino]-pyridin-2-ylamino}-7H-pyrrolo[2,3-d]pyrimidine-6-carboxylic acid dimethylamide], the IC50 is 0.1 to 1 µM at CDK4/cyclin D1 (setting [1]); > 15 µM on CDK1/cyclin B (setting [2]); > 15 µM on CDK2/cyclin A (Table 2, read-out: CDK2).
